# Assay results as given in ChEMBL document CHEMBL1201862, “PubChem BioAssay data set” (2004).
# Activity calls are given as the source filed them. Non-standard residues stand in square brackets, D forms with d. Residues, ends and D or L forms follow the SMILES beside them. ξ: configuration not given here. *: point of attachment. X18 = COC1=CC(=O)N(C(=O)C(O*)C(C)C)C1Cc1ccccc1; ξNMe2Val = CC(C)C(C(=O)*)N(C)C; NMeV = CN[CH](C(=O)O)C(C)C
# How the values were obtained:
# [1] = HEp-2 cell cytotoxicity, dose response, cytotoxicity control for RSV inhibitor project, HTS (AID 2410); assay type: functional; details: human respiratory syncytial virus
# Vero [2] = experiment: cells; assay type: functional, cell-based; details: Chlorocebus sabaeus
# cells [3] = experiment: cells
# Escherichia coli = experiment: microbe, parasite or virus in culture
# Paired box protein Pax-8 = Paired box protein Pax-8 (Homo sapiens, UniProt Q06710); experiment: inhibitors of PAX8-driven TPO luciferase reporter, dose response, RMG-I cells, cherry-pick (AID 687027); assay type: functional, cell-based;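 also: luciferase reporter driven by Pax8 target thyroperoxidase promoter measured by SteadyGlo luminescence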
# Chain of Paired box protein Pax-8 (Q06710 whole entry): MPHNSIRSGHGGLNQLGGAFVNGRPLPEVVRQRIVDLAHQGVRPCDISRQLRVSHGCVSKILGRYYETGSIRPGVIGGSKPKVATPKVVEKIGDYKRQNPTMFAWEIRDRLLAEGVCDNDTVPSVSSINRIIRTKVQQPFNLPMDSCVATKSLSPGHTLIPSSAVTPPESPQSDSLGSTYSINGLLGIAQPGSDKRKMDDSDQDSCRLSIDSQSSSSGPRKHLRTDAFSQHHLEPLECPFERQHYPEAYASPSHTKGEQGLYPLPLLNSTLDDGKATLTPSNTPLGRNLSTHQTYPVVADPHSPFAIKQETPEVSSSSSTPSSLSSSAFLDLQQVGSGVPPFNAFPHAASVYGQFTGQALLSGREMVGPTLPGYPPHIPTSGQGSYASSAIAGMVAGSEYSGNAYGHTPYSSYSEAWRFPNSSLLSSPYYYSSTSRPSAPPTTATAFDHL
# [4] = cytotoxicity in OVCAR8 ovarian cancer cells, dose response, PAX8 project, cell-based, plate reader, dry powder samples (AID 743197); assay type: functional; details: OVCAR-8
# [5] = A549 cell cytotoxicity, dose response, cytotoxicity control, plate reader, cherry-pick, antagonist series (AID 743412); assay type: functional, cell-based
# [6] = HepG2 cell cytotoxicity, dose response, cytotoxicity control, plate reader, cherry-pick, antagonist series (AID 743416); assay type: functional, cell-based
# [7] = LGR2 antagonists, dose response, cell-based, HEK293, CRE-luciferase reporter, cherry pick, set 2 (AID 743343); assay type: functional;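 also: transfected cells were stimulated with diluted bursicon conditioned medium after compound addition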
# [8] = MC4R antagonists, dose response, counter-screen for LGR2 antagonist project, cell-based, plate reader, cherry pick (AID 743444); assay type: functional;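 also: transfected HEK 293 cells stimulated with alpha-MSH peptide; potency of inhibitors of the alpha-MSH evoked signal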
# [9] = HEK293 cell cytotoxicity, dose response, cytotoxicity control, plate reader, cherry-picked samples (AID 743446); assay type: functional, cell-based
# P388/ADR = experiment: cells; assay type: functional; details: Mus musculus
# SN12K1 = experiment: cells; assay type: functional; details: Homo sapiens
# P388 = experiment: cells; assay type: functional; details: Mus musculus
# [10] = inhibitors of HIV Env-driven cell fusion, dose response, cherry-pick (AID 652057); assay type: functional, cell-based
# [11] = CEM21 lymphoblast cell cytotoxicity, dose response, cytotoxicity control for viral fusion inhibitor project, CellTiter-Glo luminescence, cherry-picked (AID 652042); assay type: functional, cell-based;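 also: potency for signal decrease meaning cytotoxicity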
# [12] = ZM109 Env clade C HIV-1 fusion inhibitors, dose response, HeLa effector, CEM target cells, luciferase, cherry-pick (AID 652058); assay type: functional, cell-based
# [13] = off-target signal loss in HeLa-CEM21 co-culture – HeLa F-luc CTL cells, cherry-picked, counter-screen for HIV-1 Env fusion inhibitor project, dose response (AID 652040); assay type: functional, cell-based;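 also: potency for signal decrease marking cytotoxic or nonspecific inhibition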
# [14] = inhibitors of clade B AD8 Env fusion, dose response, cell-based, cherry-pick (AID 652062); assay type: functional;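 also: luciferase signal from cell-cell fusion driven by HIV-1 clade B AD8 Env; potency is for inhibitors of fusion seen as a drop in luminescence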
# [15] = molecular target: Glucose-6-phosphate 1-dehydrogenase (Homo sapiens, UniProt P11413); experiment: human G6PD enzyme inhibitors, dose response, selectivity assay for P. falciparum G6PD inhibitor project, biochemical, fluorescence (AID 504792); assay type: functional
# Chain of Glucose-6-phosphate 1-dehydrogenase (P11413 whole entry): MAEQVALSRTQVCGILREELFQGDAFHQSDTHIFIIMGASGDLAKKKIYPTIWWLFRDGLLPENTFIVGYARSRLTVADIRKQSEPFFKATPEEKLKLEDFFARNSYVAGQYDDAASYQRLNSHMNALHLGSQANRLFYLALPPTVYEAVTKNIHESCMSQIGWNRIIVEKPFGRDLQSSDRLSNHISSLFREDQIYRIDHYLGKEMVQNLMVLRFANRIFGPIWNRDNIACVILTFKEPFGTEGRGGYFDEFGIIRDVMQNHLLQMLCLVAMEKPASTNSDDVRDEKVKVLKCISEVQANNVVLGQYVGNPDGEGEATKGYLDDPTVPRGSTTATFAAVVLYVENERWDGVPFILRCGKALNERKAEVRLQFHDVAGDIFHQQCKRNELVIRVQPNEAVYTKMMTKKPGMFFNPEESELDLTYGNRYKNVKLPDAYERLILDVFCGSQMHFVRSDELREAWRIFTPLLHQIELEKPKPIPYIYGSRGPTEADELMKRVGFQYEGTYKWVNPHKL
# [16] = Shn3 3'UTR reporter inhibitors, dose response, cell-based, Clone20 osteoblasts, firefly luciferase, cherry-picked (AID 624132); assay type: functional;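 also: firefly luciferase luminescence from reporter carrying the Shn3 3'UTR in osteoblasts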
# [17] = HepG2 cell cytotoxicity, dose response, cytotoxicity control for Shn3 inhibitor project, CellTiter-Glo, cherry-picked (AID 624134); assay type: functional, cell-based
# [18] = control 3'UTR Renilla luciferase suppression, dose response, counter-screen for Shn3 inhibitor project, cell-based, Clone20-Shn3RL, cherry-picked (AID 624133); assay type: functional
# [19] = molecular target: T1, High affinity choline transporter 1 (Homo sapiens, UniProt Q9GZV3); experiment: CHT inhibitors, dose response, cell-based, 5-point CRC, membrane potential dye (AID 504840); assay type: functional
# T1 sequence (Q9GZV3 whole entry): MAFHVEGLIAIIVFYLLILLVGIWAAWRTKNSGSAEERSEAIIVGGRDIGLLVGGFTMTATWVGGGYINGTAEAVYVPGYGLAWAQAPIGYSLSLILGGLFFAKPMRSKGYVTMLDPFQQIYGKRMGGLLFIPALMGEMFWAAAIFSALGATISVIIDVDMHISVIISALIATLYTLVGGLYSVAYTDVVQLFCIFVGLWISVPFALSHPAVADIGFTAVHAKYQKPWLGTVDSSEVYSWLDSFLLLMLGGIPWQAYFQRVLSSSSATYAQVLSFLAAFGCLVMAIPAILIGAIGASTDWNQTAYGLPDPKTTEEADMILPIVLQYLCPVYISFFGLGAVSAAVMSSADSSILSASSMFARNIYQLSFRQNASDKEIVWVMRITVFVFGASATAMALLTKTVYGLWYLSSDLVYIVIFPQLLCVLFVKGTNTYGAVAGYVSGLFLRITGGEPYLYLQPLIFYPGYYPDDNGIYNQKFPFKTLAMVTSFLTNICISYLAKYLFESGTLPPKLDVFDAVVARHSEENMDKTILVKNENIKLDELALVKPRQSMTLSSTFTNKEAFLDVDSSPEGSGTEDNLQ
# cells [20] = assay type: functional
# BJ [21] = experiment: cytotoxicity toward BJ-TERT fibroblasts, dose response, cell-based, RAS-independent, luminescence (AID 1933); assay type: functional; details: Homo sapiens
# BJ [22] = experiment: cells; assay type: functional, cell-based; details: Homo sapiens
# BJ [23] = experiment: cytotoxicity toward BJ-TERT-LT-ST fibroblasts, dose response, cell-based, RAS-independent, luminescence (AID 1935); assay type: functional; details: Homo sapiens;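 also: BJ fibroblasts immortalized with TERT plus LT and ST oncogenes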
# [24] = cytotoxicity toward DRD oncogenic fibroblasts, dose response, cell-based, non-viral oncogenic, luminescence (AID 1934); assay type: functional; details: Homo sapiens
# Vero [25] = experiment: cells; assay type: functional; details: Chlorocebus sabaeus
# Genome polyprotein = Genome polyprotein (dengue virus type 2, UniProt P29990); experiment: Dengue-2 NS5 methyltransferase inhibitors, primary screen, biochemical, confirmation dose response (AID 588689); assay type: functional
# Chain of Genome polyprotein (P29990 2492-3391 limits assumed): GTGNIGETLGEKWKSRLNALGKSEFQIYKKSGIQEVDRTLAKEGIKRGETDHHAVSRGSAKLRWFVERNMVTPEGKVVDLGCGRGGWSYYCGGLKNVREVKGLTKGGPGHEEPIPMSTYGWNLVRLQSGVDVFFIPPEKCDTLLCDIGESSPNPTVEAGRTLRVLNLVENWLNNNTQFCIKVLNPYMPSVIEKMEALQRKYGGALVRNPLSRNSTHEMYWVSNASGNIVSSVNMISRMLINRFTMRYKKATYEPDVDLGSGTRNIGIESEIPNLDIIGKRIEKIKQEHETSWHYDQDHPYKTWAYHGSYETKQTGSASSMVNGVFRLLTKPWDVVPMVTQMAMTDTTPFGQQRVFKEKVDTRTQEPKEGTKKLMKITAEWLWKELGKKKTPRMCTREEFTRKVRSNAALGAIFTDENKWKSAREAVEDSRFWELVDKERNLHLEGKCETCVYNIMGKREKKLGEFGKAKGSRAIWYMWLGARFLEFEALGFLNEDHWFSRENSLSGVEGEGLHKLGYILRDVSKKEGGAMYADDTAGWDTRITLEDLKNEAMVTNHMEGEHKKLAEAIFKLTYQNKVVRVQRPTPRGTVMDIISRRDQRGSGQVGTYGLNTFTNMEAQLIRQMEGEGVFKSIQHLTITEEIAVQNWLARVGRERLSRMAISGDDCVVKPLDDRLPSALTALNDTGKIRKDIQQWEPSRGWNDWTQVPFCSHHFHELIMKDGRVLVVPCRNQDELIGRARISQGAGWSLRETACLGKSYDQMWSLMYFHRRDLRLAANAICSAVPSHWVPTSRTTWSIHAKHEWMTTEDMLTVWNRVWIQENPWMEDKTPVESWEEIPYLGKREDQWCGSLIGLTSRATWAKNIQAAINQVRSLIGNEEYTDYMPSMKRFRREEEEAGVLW
# [26] = intracellular Trypanosoma cruzi inhibitors in host cells – cell-based, plate reader, cherry-pick samples, set 3, dose response (AID 651818); assay type: functional;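 also: compounds incubated with infected cells for about four days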
smiles,measurement,setting,value
CC(C)(C)C(=O)Nc1sc(-c2ccccc2)cc1C(=O)O,CC50,[1],17.9 µM (active)
same,IC50,Vero [2],24.1 µM (active)
same,IC50,cells [3],14.3 µM (active)
COc1cc(SC)ccc1C(=O)OCC(=O)NC(=O)NC(C)C,AC50,Escherichia coli,28.2 µM (active)
CCCNC(=O)Nc1ccc2c(c1)OC[C@H](C)N(Cc1ccc(-c3ccccn3)cc1)C[C@@H](C)[C@@H](OC)CN(C)C2=O,AC50,Paired box protein Pax-8,32.9 µM (active)
same,AC50,[4],> 70 µM (inactive)
CSCCC(c1nnnn1-c1c(C)cccc1C)N1CCC(n2c(O)nc3ccccc32)CC1 (stereo not drawn),AC50,[5],18.3 µM (active)
same,AC50,[6],36.5 µM (active)
same,AC50,[7],16.5 µM (active)
same,AC50,[8],20.5 µM (active)
same,AC50,[9],22.4 µM (active)
CC1C(=O)OC2CC[N+]3(CC(=O)c4ccc(Br)cc4)CC=C(COC(=O)C(C)(O)C1(C)O)C23 (stereo not drawn),GI50,P388/ADR,> 375 µM (inactive)
same,GI50,SN12K1,> 375 µM (inactive)
same,GI50,P388,> 174 µM (inactive)
CCOC1=C2[C@H](c3ccccc3)N(S(=O)(=O)c3ccc(C)cc3)[C@H](C(C)C)[C@H]2C(C#N)(C#N)C(C#N)(C#N)C1,AC50,[10],0.734 µM (active)
same,AC50,[11],6.07 µM (active)
same,AC50,[12],2.05 µM (active)
same,AC50,[13],1.7 µM (active)
same,AC50,[14],3.08 µM (active)
COc1cccc(CNC(=O)c2cc3oc4ccccc4c3n2C)c1OC,CC50,[1],11.7 µM (active)
same,IC50,cells [3],4.72 µM (active)
CCC(=O)Nc1cc2nn(-c3ccc(OC)cc3)nc2cc1C,AC50,[6],> 52 µM (inactive)
same,AC50,[7],3.64 µM (active)
same,AC50,[8],2.52 µM (active)
Cc1ccc(C(=O)NCC(=O)NCC(=O)OCC(=O)c2ccc([N+](=O)[O-])cc2)cc1,IC50,[15],> 80 µM (inactive)
CCNC(=O)c1ccc(NS(=O)(=O)c2ccccc2)cc1,AC50,Escherichia coli,27.4 µM (active)
COc1cccc(CN(C)C(=O)c2cccc(S(=O)(=O)N3CCN(c4ccccc4)CC3)c2)c1,AC50,[16],64.1 µM (active)
same,AC50,[17],> 70 µM (inactive)
same,AC50,[18],12.2 µM (active)
N[C@H](C(=O)O)[C@H]1ON=C(Cl)[C@@H]1O,GI50,P388/ADR,2.23 µM (inactive)
same,GI50,SN12K1,1.07 µM (active)
same,GI50,P388,2.17 µM (inactive)
COC(=O)C1=C(C)N(Cc2ccccc2)C(=O)N[C@H]1c1ccc(Br)cc1,IC50,cells [3],4.43 µM (active)
Cc1ccc(C(=O)N/C(=C/c2ccco2)C(=O)Nc2cccc(C)c2)cc1,IC50,[19],13.7 µM (active)
COC1=CC(=O)N(C(=O)C(OC(=O)C2CCCN2C(=O)C2CCCN2C(=O)C(C(C)C)N(C)C(=O)C(NC(=O)C(C(C)C)N(C)C)C(C)C)C(C)C)C1Cc1ccccc1 (stereo not drawn) (ξNMe2Val-V[NMeV]PP-X18; configuration not given here),GI50,P388/ADR,0.00748 µM (active)
same,GI50,SN12K1,0.0004 µM (active)
same,GI50,P388,0.0004 µM (active)
CC(=O)N1CCN(c2cc3c(cc2F)c(=O)c(C(=O)O)cn3C2CC2)CC1,IC50,cells [20],2.11 µM (active)
same,AC50,Escherichia coli,1.06 µM (active)
CC1C(O)[C@@]2(OC[C@@]34C(=O)CC5(O)[C@H](CCC6Cc7nc8c(nc7C[C@]65C)CC5CC[C@@H]6C7=C[C@H]9O[C@@]%10(O[C@@](C)(CO)C[C@@H]%10O)C(C)[C@@]9(O)[C@]7(C)[C@@H](O)CC6[C@]5(C)C8)C3=CC[C@H]4C2C)OC1(C)C (stereo partly drawn),GI50,P388/ADR,0.00203 µM (active)
same,GI50,SN12K1,> 3.55 µM (inactive)
same,GI50,P388,< 0.000355 µM (active)
COC(=O)CCC(=O)OC1(C)C(=O)C2=CN(c3ccc(OC)cc3)C(c3ccc(OC)cc3)=CC2=C(Br)C1=O (stereo not drawn),IC50,[15],30.1 µM (inactive)
Nc1ccn(C2OC(CO)C(O)C2F)c(=O)n1 (stereo not drawn),AC50,[10],16.3 µM (active)
same,AC50,[11],33.2 µM (active)
same,AC50,[12],6.52 µM (active)
same,AC50,[13],> 70 µM (inactive)
same,AC50,[14],2.98 µM (active)
Nc1nc(=O)[nH][nH]1,GI50,P388/ADR,> 100 µM (inactive)
same,GI50,SN12K1,> 100 µM (inactive)
same,GI50,P388,> 100 µM (inactive)
Cc1ccc(NC(=O)c2cc(C)n(-c3ccccc3)c2C)cc1,CC50,[1],16.9 µM (active)
same,IC50,[15],> 80 µM (inactive)
Cc1ccc(-n2c(SCC(=O)Nc3ncc(Cl)cc3Cl)nc3ccccc32)cc1,CC50,[1],2.33 µM (active)
same,EC50,BJ [21],115 µM (active)
same,EC50,BJ [22],64.6 µM (active)
same,EC50,BJ [23],> 150 µM (not active)
same,EC50,[24],30.6 µM (inconclusive)
same,IC50,Vero [2],0.72 µM (active)
same,CC50,Vero [25],> 25 µM (active)
same,IC50,cells [3],1.1 µM (active)
Cc1cc(O)c(C(C)C)cc1N=Cc1ccccc1[N+](=O)[O-],IC50,[15],> 80 µM (inactive)
same,IC50,Genome polyprotein,> 100 µM (active)
Cc1nn(Cc2ccccc2Cl)c(C)c1NC(=O)c1ccn(C)n1,AC50,Escherichia coli,19.1 µM (active)
CC(=O)NS(=O)(=O)c1ccc(NC(=O)c2cc(-c3cccs3)nc3ccccc23)cc1,AC50,Escherichia coli,36.4 µM (active)
O=C(NC1CCCCC1)C(c1ccc2ncccc2c1)N(Cc1ccc2c(c1)OCO2)C(=O)c1cccs1 (stereo not drawn),IC50,[19],16.5 µM (active)
CC(=O)Nc1nnc(SCC(=O)c2ccc3c(c2)Cc2ccccc2-3)s1,CC50,[1],45.6 µM (active)
same,IC50,Vero [2],10.9 µM (active)
same,IC50,cells [3],36 µM (active)
COc1ccccc1S(=O)(=O)Cc1ccc(C(=O)N2CCN(c3cccc(Cl)c3)CC2)o1,AC50,[11],17.1 µM (active)
same,AC50,[13],> 70 µM (inactive)
same,AC50,[14],43 µM (active)
NC(Cc1ccc(F)cc1)c1csc(Nc2ccc(C(F)(F)F)cn2)n1 (stereo not drawn),AC50,[10],10 µM (active)
same,AC50,[11],9.3 µM (active)
same,AC50,[12],7.7 µM (active)
same,AC50,[13],9.07 µM (active)
Cc1ccc(-c2nn(-c3ccccc3)cc2C2CC(c3cccs3)=NN2C(=O)CCCC(=O)O)cc1 (stereo not drawn),CC50,[1],> 50 µM (active)
same,IC50,cells [3],36.9 µM (active)
C[C@@H]1CN([C@H](C)CO)C(=O)c2cccc(NC(=O)Nc3ccc(C(F)(F)F)cc3)c2O[C@H]1CN(C)Cc1ccc2c(c1)OCO2,AC50,[26],1.82 µM (active)
O=C1NC(=O)C2(CCc3ccc(N(CCCl)CCCl)cc32)N1 (stereo not drawn),GI50,P388/ADR,2.1 µM (inactive)
same,GI50,SN12K1,15 µM (inactive)
same,GI50,P388,1.35 µM (inactive)
O=C(COC(=O)CCCSc1nc2ccccc2[nH]1)NC(=O)NC1CCCC1,IC50,[19],7.24 µM (active)
